Results from patent publication US6818657B1, “Bioprecursors of a retinoic derivative and pharmaceutical and/or cosmetic compositions” (Pierre Fabre Dermo-Cosmetique, priority 1999, dated 2004).

Tests used:
[1] = molecular target: T1, recombinant β-glucocerebrosidase (Homo sapiens, UniProt P04062); experiment: Michaelis constants (Km) and Vm of recombinant β-glucocerebrosidase for pseudosubstrates; type: biochemical; settings: phthalate buffer pH 5.6 (0.025 M), taurocholate 5 mM, purified β-glucocerebrosidase, 30 minutes incubation
T1 construct: histidine tail (His tag) (C); made in house
T1 sequence (P04062 40-536): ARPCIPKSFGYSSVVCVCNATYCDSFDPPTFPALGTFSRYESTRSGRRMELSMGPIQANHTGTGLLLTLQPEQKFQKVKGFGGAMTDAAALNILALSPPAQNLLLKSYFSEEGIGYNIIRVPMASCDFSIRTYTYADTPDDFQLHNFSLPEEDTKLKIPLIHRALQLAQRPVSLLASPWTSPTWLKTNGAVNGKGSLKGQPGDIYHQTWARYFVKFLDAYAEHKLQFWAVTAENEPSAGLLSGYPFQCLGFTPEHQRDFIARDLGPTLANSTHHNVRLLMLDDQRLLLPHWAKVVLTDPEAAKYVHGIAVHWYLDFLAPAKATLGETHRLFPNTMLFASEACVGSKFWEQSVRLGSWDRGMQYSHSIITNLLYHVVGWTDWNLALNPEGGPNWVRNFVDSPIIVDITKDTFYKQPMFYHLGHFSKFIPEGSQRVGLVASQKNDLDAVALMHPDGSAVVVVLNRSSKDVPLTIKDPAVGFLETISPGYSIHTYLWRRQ
Description: After confirming that β-glucocerebrosidase is expressed in the keratinocytes, we produced a recombinant enzyme in the baculovirus system. A histidine tail was added to the COOH end of the protein to allow it to be purified by affinity column chromatography.
Thus, we were able to determine the Michaelis constants (Km) and the Vm values of the recombinant β-glucocerebrosidase in particular for the retinoic acid-arbutin glucoconjugate. The kinetics measurements are carried out in a phthalate buffer at pH 5.6 (0.025 M) containing taurocholate (5 mM), purified β-glucocerebrosidase and the test conjugate at various concentrations. The incubation lasts 30 minutes and the amount of hydroquinone-retinoic acid conjugate released is assayed by HPLC. The table below gives the results obtained. […] As regards their rates of hydrolysis, these are lower and thus allow effects to be obtained over time.

[2] = Distribution in the stratum corneum after topical application; type: in vivo

Cc1cc(=O)oc2cc(O[C@@H]3O[C@H](CO)[C@@H](O)[C@H](O)[C@H]3O)ccc12 [4-Methylumbelliferyl-glucopyranoside, 4-methyl-umbelliferyl-β-D-glucopyranoside]
Km [1]: 2800 ± 700 µM
Vm weighted by the amount of soluble proteins [1]: 4000 ± 1000 nmol/h/mg

Cc1cc(O[C@@H]2O[C@H](CO)[C@@H](O)[C@H](O)[C@H]2O)cc2c1O[C@](C)(CCC[C@H](C)CCC[C@H](C)CCCC(C)C)CC2 [δ-Tocopheryl-glucopyranoside]
Vm weighted by the amount of soluble proteins [1]: 453 ± 20 nmol/h/mg
Km ([1]; HPLC assay): 7 ± 1 µM

Cc1c(C)c2c(c(C)c1O)CC[C@@](C)(CCC[C@H](C)CCC[C@H](C)CCCC(C)C)O2 [vitamin E (α-tocopherol), α-tocopherol]
location in the stratum corneum after topical application ([2]; topical application, same excipient): accumulate in the upper layers of the stratum corneum after topical application and are removed by desquamation

CC1=C(/C=C/C(C)=C/C=C/C(C)=C/C(=O)O)C(C)(C)CCC1 [retinoic acid]
location in the stratum corneum after topical application ([2]; in vivo): accumulate in the upper layers of the stratum corneum after topical application and are removed by desquamation
